The source of these data is PubChem BioAssay (NCI).

SMILES strings stand for the structures.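 Following 48 hours of exposure in 96-well plates, responses at five concentrations were used to interpolate endpoints linearly. At the GI50, growth is halved. Definition used: TGI = concentration required for complete inhibition of growth.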 Some results are limits rather than exact numbers.

Test systems include UO-31 renal; NCI-H460 lung; HCT-15 colon; MDA-MB-231 breast; 786-0 renal; TK-10 renal; SN12C renal; OVCAR-4 ovarian; KM12 colon; KM20L2 colon; DLD-1 colon.
Assay in all cases: NCI tumour cell line growth inhibition, 48 h

For `C/C(=N/NC(N)=S)c1ccc[nH]1`, the TGI with UO-31 renal, with NCI-H460 lung, in the assay on HCT-15 colon, with MDA-MB-231 breast, in the assay on 786-0 renal and in the assay with TK-10 renal was over 100 µM throughout. The TGI in the assay on SN12C renal, in the assay on OVCAR-4 ovarian and in the assay on KM12 colon was over 100 µM each time.
Take `C[C@@H]1Nc2cc(NC(=O)OCCF)nc(N)c2N=C1c1ccccc1`: the TGI was 89.1 µM with UO-31 renal, over 100 µM in the assay with HCT-15 colon, over 100 µM in the assay with SN12C renal and over 100 µM in the assay with OVCAR-4 ovarian. Also, the GI50 with OVCAR-4 ovarian is over 100 µM.
Regarding `CC(=O)Nc1ccc(/C=C/c2ccc(NC(=O)Nc3ccc(/C=C/c4ccc(NC(C)=O)cc4S(=O)(=O)O)c(S(=O)(=O)O)c3)cc2S(=O)(=O)O)c(S(=O)(=O)O)c1`, the TGI in the assay on UO-31 renal, in the assay on NCI-H460 lung, in the assay with HCT-15 colon, in the assay on KM20L2 colon, in the assay on DLD-1 colon and with SN12C renal was over 100 µM each time. In addition, the TGI in the assay on OVCAR-4 ovarian and in the assay on KM12 colon was over 100 µM in each case.
Consider `COCc1nc2c(OC)c(-c3nc4nc(N5CCN(C)CC5)ccc4[nH]3)cc(OC)c2n1C`, for which the TGI with UO-31 renal is 76.9 µM; with NCI-H460 lung it was 78.8 µM; in the assay with HCT-15 colon, over 100 µM; in the assay with MDA-MB-231 breast, 46.4 µM; with 786-0 renal, over 100 µM; in the assay with SN12C renal, over 100 µM. The results for the TGI in the assay with OVCAR-4 ovarian and in the assay on KM12 colon were over 100 µM and 61.6 µM, respectively.
Regarding `CCOP(=O)(OCC)C(c1ccc(F)cc1)N(C(=O)NC(F)(F)F)c1cccc(C(F)(F)F)c1` (stereo unspecified), the TGI in the assay with UO-31 renal, in the assay with NCI-H460 lung, in the assay on HCT-15 colon, in the assay with MDA-MB-231 breast, in the assay with TK-10 renal and with SN12C renal was over 100 µM in each case. The TGI in the assay with OVCAR-4 ovarian and with KM12 colon was over 100 µM each time.
In the case of `CCC(C)NC1=NCC(C)S1` (stereo unspecified), the TGI with UO-31 renal, in the assay on NCI-H460 lung, in the assay with HCT-15 colon, in the assay with MDA-MB-231 breast, in the assay on SN12C renal and with KM12 colon was over 100 µM in each case.
For `CN=C(SC)N(C)c1nc(=[N+](C)C)ss1`, the TGI in the assay with UO-31 renal, with HCT-15 colon, in the assay on 786-0 renal, with TK-10 renal, in the assay with SN12C renal and in the assay with KM12 colon was over 100 µM in each case.
For the compound `COc1ccccc1CNCCCN1C(=O)c2ccc3c4c(ccc(c24)C1=O)C(=O)N(CCCNCCNCCCN)C3=O`, the GI50 with UO-31 renal was 10.8 µM; with NCI-H460 lung, 2.08 µM; with HCT-15 colon it was 12.2 µM; in the assay on MDA-MB-231 breast, 2.09 µM; in the assay on TK-10 renal it was 6.65 µM; in the assay with SN12C renal it was 2.09 µM. Also, the GI50 is 0.466 µM with OVCAR-4 ovarian and 3.25 µM with KM12 colon. The TGI in the assay on UO-31 renal is 84.5 µM; in the assay on NCI-H460 lung, 6.47 µM; in the assay with HCT-15 colon it was 26.8 µM; in the assay with MDA-MB-231 breast, over 100 µM; in the assay on TK-10 renal, 44.7 µM; in the assay with SN12C renal, 8.07 µM. In addition, the TGI with OVCAR-4 ovarian worked out at 1.68 µM; with KM12 colon, 11.4 µM.
In the case of `CCOC(=O)Cn1c(=O)ccn(COCCO)c1=O`, the TGI with UO-31 renal, in the assay with NCI-H460 lung, with HCT-15 colon, with MDA-MB-231 breast, with TK-10 renal and with SN12C renal was over 100 µM in each case. Moreover, the TGI with OVCAR-4 ovarian and in the assay on KM12 colon was over 100 µM in each case.
As for `CC1CC2=C(S(=O)(=O)c3ccccc3)CC(S(=O)(=O)c3ccccc3)(S(=O)(=O)c3ccccc3)CC21` (stereo unspecified), the TGI in the assay with UO-31 renal, with NCI-H460 lung, in the assay on HCT-15 colon, with KM20L2 colon, in the assay with DLD-1 colon and with TK-10 renal was over 100 µM in each case. In addition, the TGI in the assay with SN12C renal, with OVCAR-4 ovarian and in the assay on KM12 colon was over 100 µM each time.
Turning to `COc1cc2oc(-c3ccc(O)cc3)c(OC)c(=O)c2c(O)c1OC`, the GI50 with UO-31 renal was 42.6 µM; with NCI-H460 lung it was 41.1 µM; in the assay with HCT-15 colon, 23.3 µM; in the assay with TK-10 renal it was 62.4 µM; in the assay with SN12C renal it was 33.7 µM; in the assay with OVCAR-4 ovarian, 99.2 µM. In addition, in the assay with KM12 colon, the GI50 is 78.9 µM. The TGI in the assay on UO-31 renal, in the assay on NCI-H460 lung, with HCT-15 colon, in the assay with TK-10 renal, with SN12C renal and in the assay with OVCAR-4 ovarian was over 100 µM throughout. Moreover, the TGI with KM12 colon was over 100 µM.
Regarding `COc1ccc(S(=O)(=O)c2ccccc2[N+](=O)[O-])cc1`, the TGI with UO-31 renal, in the assay on NCI-H460 lung, in the assay with HCT-15 colon, with KM20L2 colon, in the assay on DLD-1 colon and in the assay on TK-10 renal was over 100 µM throughout. Besides, the TGI with SN12C renal, in the assay with OVCAR-4 ovarian and with KM12 colon was over 100 µM throughout.
In the case of `CCOC(=O)c1ccc(N[C@@H]2c3cc4c(cc3C(c3cc(OC)c(O)c(OC)c3)[C@H]3C(=O)OCC32)OCO4)cc1O` (stereo partly specified), the TGI was 78.1 µM in the assay on UO-31 renal; 0.822 µM with NCI-H460 lung; 2.54 µM with HCT-15 colon; over 22.3 µM in the assay with KM20L2 colon; 4.58 µM with DLD-1 colon; over 100 µM with OVCAR-4 ovarian. The compound further yielded a TGI with KM12 colon of 1.47 µM.
As for `COCCCNc1nc(N)c(C#N)c(C#N)c1C#N`, the TGI in the assay with UO-31 renal, in the assay on NCI-H460 lung, in the assay with HCT-15 colon, in the assay on MDA-MB-231 breast, in the assay with TK-10 renal and in the assay with SN12C renal was over 10 µM each time. Besides, the TGI with OVCAR-4 ovarian and in the assay on KM12 colon was over 10 µM throughout.
`Nc1nc([O-])c2c(n1)[n+](C1OC(CO)C(O)C1O)cn2CCO` (stereo unspecified): the TGI in the assay on UO-31 renal, in the assay with NCI-H460 lung, in the assay on HCT-15 colon, in the assay on KM20L2 colon, in the assay on DLD-1 colon and in the assay with 786-0 renal was over 100 µM throughout. Also, the TGI in the assay with TK-10 renal, with SN12C renal, in the assay on OVCAR-4 ovarian and with KM12 colon was over 100 µM in each case.
With `Clc1ccc(C[P+](c2ccccc2)(c2ccccc2)c2ccccc2)c(Cl)c1`, the TGI was 11.8 µM in the assay with NCI-H460 lung; over 100 µM with HCT-15 colon; 18.9 µM in the assay on KM20L2 colon; 25.6 µM with TK-10 renal; 12.4 µM in the assay on SN12C renal; 35.6 µM in the assay with OVCAR-4 ovarian. In addition, the TGI with KM12 colon was determined as 7.01 µM.
`CCOC(=O)CNC(=O)N(CC)C12CC3CC(CC(C3)C1)C2`: the TGI in the assay with UO-31 renal amounted to 358 µM; in the assay on NCI-H460 lung it was 406 µM; with HCT-15 colon, 228 µM; with KM20L2 colon, 223 µM; in the assay with DLD-1 colon, 44.9 µM; in the assay with SN12C renal, 414 µM. For the same compound, the TGI in the assay with OVCAR-4 ovarian was found to be 536 µM; with KM12 colon, 453 µM.
Take `C[Si](C)(C)OC1CC(=O)OC1n1cc(F)c(=O)[nH]c1=O` (stereo unspecified): the TGI in the assay with UO-31 renal is over 100 µM; in the assay on NCI-H460 lung it was over 100 µM; with HCT-15 colon, over 54 µM; in the assay with KM20L2 colon, over 100 µM; in the assay with DLD-1 colon it was over 100 µM; in the assay on 786-0 renal it was over 100 µM. The TGI in the assay on TK-10 renal, in the assay with SN12C renal, with OVCAR-4 ovarian and in the assay with KM12 colon was over 100 µM throughout.
For the compound `CN(C)CC1CCCC(CN(C)C)C1OC(=O)c1ccccc1` (stereo unspecified), the TGI in the assay on UO-31 renal, with NCI-H460 lung, with HCT-15 colon, with KM20L2 colon, with DLD-1 colon and with 786-0 renal was over 100 µM each time. Also, the TGI in the assay on TK-10 renal, with SN12C renal, with OVCAR-4 ovarian and with KM12 colon was over 100 µM in each case.
